Literature values as cited in US10039772B2, “Methods and compositions for treating alcohol use disorders” (priority 2015, dated 2018).

Test system: 11β-HSD1, 11β-HSD2
Conditions: 11β-HSD isozyme specificity per cited reference; cited from earlier work

Row | Compound | Specificity
1 | Cc1c(Cl)cccc1S(=O)(=O)Nc1nc(CC(=O)N2CCN(C)CC2)cs1 [Number 5] | 11β- HSD1 > 2
2 | CCN(CC)C(=O)Cc1csc(NS(=O)(=O)c2cccc(Cl)c2C)n1 [Number 6] | 11β- HSD1 > 2
3 | Cc1c(Cl)cccc1S(=O)(=O)Nc1nc(CCN2CCOCC2=O)cs1 [Number 7, 3-chloro-2-methyl-N-{4-[2-(3-oxo-4-morpholinyl)ethyl]-1,3-thiazol-2-yl}benzenesulfonamide] | 11β- HSD1 > 2
4 | COc1cc(C(=O)N2CCC(n3c(=O)[nH]c4ccccc43)CC2)ccc1C [Number 8] | 11β- HSD1 > 2
5 | CCC1(CC)OC(N[C@@H](C)c2ccccc2C(F)(F)F)=NC1=O [Number 9] | 11β- HSD1 > 2
6 | C[C@H](NC1=NC(=O)[C@@](C)(C(C)(C)O)S1)c1ccc(F)cc1 [Number 10] | 11β- HSD1 > 2
7 | C[C@H](NC1=NC(=O)[C@@](C)(C(F)(F)F)S1)c1ccccc1F [Number 11] | 11β- HSD1 > 2
8 | CCN(C(=O)c1ccc([C@@](C)(O)C(F)(F)F)cc1)C1CCCCC1 [Number 16] | 11β- HSD1 > 2
9 | CC(C)N(c1ccc([C@](C)(O)C(F)(F)F)cc1)S(=O)(=O)c1cc(Cl)ccc1Cl [Number 20] | 11β- HSD1 > 2
10 | Cn1c(-c2ccccc2)nnc1C12CC3CC(CC(C3)C1)C2 [Number 23] | 11β- HSD1 > 2
11 | COc1c(-c2nnc(-c3ccccc3C(F)(F)F)n2C)ccc2ccc(Cl)cc12 [Number 24] | 11β- HSD1 > 2
12 | F[C@H]1C[C@](c2ccc(Cl)cc2)(c2nnc(C3CC3)n2C2CC2)C1 [Number 25] | 11β- HSD1 > 2
13 | Cn1c(-c2ccc(-c3cccc(S(C)(=O)=O)c3)cc2Cl)nnc1C1(c2ccc(Cl)cc2)CCC1 [Number 26] | 11β- HSD1 > 2
14 | Cn1c(-c2ccc(-c3cnccn3)cc2Cl)nnc1[C@]1(c2ccc(Cl)cc2)C[C@@H](F)C1 [Number 27] | 11β- HSD1 > 2
15 | CCCCCC12CCC(c3nnc(-c4ccccc4C(F)(F)F)n3C)(CC1)CC2 [Number 28] | 11β- HSD1 > 2
16 | CCS(=O)(=O)CCCC12CCC(c3nnc(-c4ccccc4C(F)(F)F)n3C)(CC1)CC2 [Number 29] | 11β- HSD1 > 2
17 | CC(C)(C)c1ccc(S(=O)(=O)N2C[C@H]3C[C@@H]2CN3C2CCCC2)cc1 [Number 30] | 11β- HSD1 > 2
18 | Cn1c(-c2ccccc2C(F)(F)F)nnc1C12CCC(c3nc(-c4ccc(C(O)C(F)(F)F)cc4)no3)(CC1)CC2 (stereo not drawn) [Number 31] | 11β- HSD1 > 2
19 | Cn1c(-c2ccccc2C(F)(F)F)nnc1C12CCC(c3nc(-c4ccc(F)cc4)no3)(CC1)CC2 [Number 33] | 11β- HSD1 > 2
20 | CCN(CC)C(=O)Cc1cccc(NS(=O)(=O)c2cccc(Cl)c2C)n1 [Number 34] | 11β- HSD1 > 2
21 | Cc1cc(N)nc(NS(=O)(=O)c2ccc(-c3ccc(C#N)cc3)cc2)c1 [Number 36] | 11β- HSD1 > 2

Row | Compound | Specificity
22 | N#Cc1ccc(-c2ccc(S(=O)(=O)Nc3cccc(CO)n3)cc2)cc1 [Number 39] | 11β- HSD1 > 2
23 | O=C(CS(=O)(=O)c1ccccc1)c1ccc(C(F)(F)F)cc1 [Number 40] | 11β- HSD1 > 2
24 | O=S(=O)(c1ccc(Cl)c(Cl)c1)N1CCN(c2ncccc2C(F)(F)F)CC1 [Number 41] | 11β- HSD1 > 2
25 | C[C@@H]1CN(c2ncc(F)cc2C(F)(F)F)CCN1S(=O)(=O)c1cccc(-n2cncn2)c1 [Number 42] | 11β- HSD1 > 2
26 | C[C@@H]1CN(c2ccc(F)cc2C(F)(F)F)CCN1S(=O)(=O)c1cccc([C@@](C)(O)C(F)(F)F)c1 [Number 43] | 11β- HSD1 > 2
27 | C[C@@H]1CN(c2ccc(F)cc2C(F)(F)F)CCN1S(=O)(=O)c1ccc([C@@](O)(C(N)=O)C(F)(F)F)s1 [Number 45] | 11β- HSD1 > 2
28 | CCCSc1ncccc1C(=O)NC1CCCCC1 [Number 46] | 11β- HSD1 > 2
29 | O=C(N[C@H]1C2CC3CC1C[C@@](O)(C3)C2)c1cnc(N2CCOCC2)nc1C1CC1 [Number 48] | 11β- HSD1 > 2
30 | O=C(N[C@H]1C2CC3CC1C[C@@](O)(C3)C2)c1cnc(N[C@H]2CCOC2)nc1C1CCCC1 [Number 49] | 11β- HSD1 > 2
31 | CSc1nc(N2C[C@@H]3[C@H](C2)[C@H]3C(=O)O)ccc1C(=O)NC1C2CC3CC(C2)CC1C3 (stereo partly drawn) [Number 50] | 11β- HSD1 > 2
32 | COc1ccc(N2C(=O)C(C)(C)C2c2ccccc2OC)cc1 (stereo not drawn) [Number 51] | 11β- HSD1 > 2
33 | CC(C)(C)c1c(C(=O)NC2C3CC4CC(C3)CC2C4)cnn1-c1ccc(C(=O)O)cc1 (stereo not drawn) [Number 52] | 11β- HSD1 > 2
34 | CC1(C)C(=O)N(c2cccc(S(C)(=O)=O)c2)C1c1cccc2nccnc12 (stereo not drawn) [Number 53] | 11β- HSD1 > 2
35 | Nc1c(Cl)cc(C(=O)N(C2CCCC2)C2CC2)cc1Cl [Number 54] | 11β- HSD1 > 2
36 | C[C@@H]1CC(n2c(=O)[nH]c3ccccc32)C[C@@H](C)N1C(=O)c1cc(Cl)c(N)c(Cl)c1 (stereo partly drawn) [Number 55] | 11β- HSD1 > 2
37 | O=C1C(Cc2ccccc2)CCN1C1CCCCC1 (stereo not drawn) [Number 56] | 11β- HSD1 > 2
38 | N#Cc1cccnc1N1CCN(CC(=O)NC2C3CC4CC(C3)CC2C4)CC1 (stereo not drawn) [Number 58] | 11β- HSD1 > 2
39 | O=C(CN1CCN(c2ccc(C(F)(F)F)cn2)CC1)NC1C2CC3CC1CC(O)(C3)C2 (stereo not drawn) [Number 59] | 11β- HSD1 > 2
40 | CC(C)(C(=O)NC1C2CC3CC1CC(C(N)=O)(C3)C2)N1CCN(c2ccc(C(F)(F)F)cn2)CC1 (stereo not drawn) [Number 60] | 11β- HSD1 > 2
41 | CC(C)(Cc1ccc(Cl)cc1)C(=O)NC12CCC(C(N)=O)(CC1)CC2 [Number 61] | 11β- HSD1 > 2
42 | CC(C)(Oc1ccc(-n2cccn2)cn1)C(=O)N[C@H]1C2CC3CC1C[C@@](C(N)=O)(C3)C2 [Number 63] | 11β- HSD1 > 2

Row | Compound | Specificity
43 | CC1CCN(C(=O)c2cccc(CSc3c(Cl)cccc3Cl)n2)CC1 [Number 68] | 11β- HSD1 > 2
44 | N#Cc1c(O)nc(SCc2ccccc2Cl)nc1-c1ccccc1 [Number 69] | 11β- HSD1 > 2
45 | Cc1ccc(-c2cccc(C(=O)N3CCCC(C)(C)C3)n2)cc1F [Number 71] | 11β- HSD1 > 2
46 | Cc1c(Cl)cccc1Oc1cccn2c(C34CCC(O)(CC3)CC4)nnc12 [Number 72] | 11β- HSD1 > 2
47 | O=C(O)CC1C2CC3CC(C2)CC1C3 (stereo not drawn) [Number 73] | 11β- HSD1 > 2
48 | O=C(O)CC1(c2ccc(F)cc2)C2CCCC1CCC2 (stereo not drawn) [Number 74] | 11β- HSD1 > 2
49 | O[C@]12CC[C@](c3nnc4c(Oc5ccccc5Cl)cccn43)(CC1)C2 [Number 75] | 11β- HSD1 > 2
50 | O=C(NC1C2CC3CC(C2)CC1C3)N1CCCCC1 (stereo not drawn) [Number 76] | 11β- HSD1 > 2
51 | O=C(O)C[C@H]1CC2(CCN(C(=O)NC3C4CC5CC(C4)CC3C5)CC2)c2c(Br)cccc21 (stereo partly drawn) [Number 77] | 11β- HSD1 > 2
52 | O=C(OC1C2CC3CC(C2)CC1C3)N1CCCCC1 (stereo not drawn) [Number 78] | 11β- HSD1 > 2
53 | N#Cc1cccnc1N[C@@H]1CCN(C(=O)O[C@H]2C3CC4CC2C[C@@](C(N)=O)(C4)C3)C1 [Number 79] | 11β- HSD1 > 2
54 | Cc1c(Cl)cccc1S(=O)(=O)NCc1ccc(C(=O)N2C[C@@H](C)O[C@@H](C)C2)cc1 [Number 82] | 11β- HSD1 > 2
55 | CCCN(C(=O)c1ccc(CNS(=O)(=O)c2cccc(Cl)c2)cc1)C1CCCCCC1 [Number 83] | 11β- HSD1 > 2
56 | CCN(CC)C(=O)C1CCCN(S(=O)(=O)c2cccc(Cl)c2C)C1 (stereo not drawn) [Number 84] | 11β- HSD1 > 2
57 | CN(C(=O)c1csc(CNS(=O)(=O)c2cccc(Cl)c2)n1)C1CCCCCC1 [Number 85] | 11β- HSD1 > 2
58 | CN(C(=O)N1CCC(CN2C(=O)Nc3ccc(Cl)cc3S2(=O)=O)CC1)C1CCCCCC1 [Number 86] | 11β- HSD1 > 2
59 | Cc1c(Cl)cccc1S(=O)(=O)N1CCC[C@@H](C(=O)N[C@H]2C[C@@H]3CC[C@@]2(C)C3(C)C)C1 [Number 87] | 11β- HSD1 > 2
60 | C[C@]1(C(=O)N[C@H]2C3CC4CC2C[C@@](O)(C4)C3)CCCN1S(=O)(=O)c1cccc2cccnc12 [Number 90] | 11β- HSD1 > 2
61 | O=C(CN1C(C(=O)c2ccccc2)=C(O)c2ccccc2S1(=O)=O)c1ccccc1 [Number 91] | 11β- HSD1 > 2

Same assay, conditions: cited from earlier work

Row | Compound | Specificity
62 | CC(C)[C@]1(C)SC(N[C@H]2C[C@@H]3CC[C@H]2C3)=NC1=O [Number 13] | 11β- HSD1 > 2
63 | CC(C)[C@]1(C)SC(N[C@H]2C[C@H]3C[C@@H]2C[C@@H]3O)=NC1=O [Number 14] | 11β- HSD1 > 2
64 | C[C@](O)(c1ccc(C(=O)N(C2CC2)C2CCN(CC3(C(N)=O)CC3)CC2)cc1)C(F)(F)F [Number 18] | 11β- HSD1 > 2
65 | C[C@](O)(c1ccc(C(=O)N(C2CC2)C2CCC(CCC(N)=O)(c3ccccc3)CC2)cc1)C(F)(F)F (stereo partly drawn) [Number 19] | 11β- HSD1 > 2
66 | CO[C@@H]1C[C@H]2CC[C@@H](C1)N2S(=O)(=O)c1ccc(C(C)(C)C)cc1 [Number 32] | 11β- HSD1 > 2
67 | C[C@@H]1CN(c2ccc(F)cc2C(F)(F)F)CCN1S(=O)(=O)c1ccc(C(N)=O)cc1Cl [Number 44] | 11β- HSD1 > 2
68 | CCCSc1nc(N2CCC[C@@H](CC(=O)O)C2)ccc1C(=O)NC1CCCCC1 [Number 47] | 11β- HSD1 > 2
69 | CC(C(=O)NC1C2CC3CC1CC(O)(C3)C2)N1CCN(c2ccc(C(F)(F)F)cn2)CC1 (stereo not drawn) [Number 66] | 11β- HSD1 > 2
70 | CC1CCN(C(=O)c2ccc(CSc3ccc(Cl)cc3)cc2)CC1 [Number 67] | 11β- HSD1 > 2
71 | N#Cc1ncccc1CSc1nc(O)c(C#N)c2c1COCC2 [Number 70] | 11β- HSD1 > 2
72 | Cc1cccc(N2CCC(C)(c3ccccc3)OC2=O)c1 (stereo not drawn) [Number 80] | 11β- HSD1 > 2
73 | C[C@@H](c1ccc(-c2ccc(F)cc2F)cc1)N1CC[C@](CCO)(c2ccc(F)cc2)OC1=O [Number 81] | 11β- HSD1 > 2
74 | Cc1c(Cl)cccc1S(=O)(=O)N1CCCC[C@@H]1C(=O)N[C@H]1C2CC3CC1C[C@](O)(C3)C2 [Number 88] | 11β- HSD1 > 2
75 | Cc1c(Cl)cccc1S(=O)(=O)N1CCCC[C@@H]1C(=O)N[C@H]1C2CC3CC1C[C@](O)(C3)C2 [Number 89] | 11β- HSD1 > 2
